From patent publication US20080108706A1, “Chemical resection of pancreas” (priority 1999, published 2008)

Columns and labels:
[1] = test system: Pancreatic Ductal Adenocarcinoma #03; assay: Evaluation against early stage pancreatic ductal adenocarcinoma #03 in BDF mice; type: in vivo
Description: Male BDF mice (12 weeks old, weight approximately 28.9 g) were implanted with the pancreatic ductal cell carcinoma #03 3 days before beginning treatment with (HO)2DEHSPM.

[2] = Non-tumor-bearing toxicity controls, same regimens; type: in vivo
[3] = test system: pancreatic native polyamine pools; assay: Tissue drug and native polyamine levels (pancreas, liver) in treated dogs; type: in vivo, beagles
Description: The two dogs (#490 and 494) were fed a prescription canned and dry dog food and were supplemented with Viokase, a pancreatic enzyme preparation, by mixing three tablets with food or by oral administration immediately before each feeding. The dogs were maintained on this regimen for approximately three weeks. During this time, their weight and blood chemistries were closely monitored. The Viokase supplementation was then stopped and the same parameters were again evaluated. One week after the Viokase administration had ceased, the animals were euthanized and tissues were taken for histology and for the determination of tissue polyamine levels.
As the pancreatic insufficiency side-effect that was observed after the administration of the (R,R)—(HO)2DEHSPM to the beagles may have been related to the (R,R)-chirality of the molecule, the (S,S)-enantiomer was synthesized and was compared in a head-to-head fashion with the (R,R)-enantiomer. To perform this experiment, five male beagles approximately 6-8 months of age were obtained from Harlan Sprague Dawley. There were provided with food and water ad libitum and were allowed to acclimate to their new surroundings for two weeks. The animals were weighed prior to starting drug administration and were weighed once per week during the drug dosing period. A CBC and chemistry panel and a Holter monitor were performed once per week. In addition to the usual tests, additional pancreatic function-specific tests were also performed. These additional evaluations included a fecal trypsin test, examination of the feces for fecal fat and serum trypsin-like immunoreactivity determinations. It was hoped that these signs of pancreatic insufficiency would only appear in the animals given the (R,R)-enantiomer and would not be observed in the dogs that were given the (S,S)-molecule. The pancreatic insufficiency may not become evident until approximately 7-8 weeks post-drug. At the conclusion of the experiment, all of the animals were sacrificed and the histology and tissue polyamine levels were determined.
• 1. Dogs #468 and 500 were given (R,R)—(HO)2DEHSPM subcutaneously twice daily for 13 days. • 2. They were fed Purina Dog Chow ad libitum and given free access to water. • 3. Polyamine levels in the pancreas were also analyzed at several time points post-drug. • 4. At the start of the experiment, dog #468 weighed 14.4 kg and dog #500 weighed 12.8 kg. The latter animal's weight never exceeded 13.2 kg. At the end of the drug dosing period, dog #468 weighed 13.0 kg, a loss of 1.4 kg; dog #500 weighed 13.2 kg, a gain of 0.4 kg. • 5. […] The pancreatic native polyamine pools (most especially SPD) were markedly diminished compared to untreated control tissue: [SPM]control=3,985 μm v. [SPM10-days post-treatment=2,548 μm (64% of control) [SPD]control=2,820 μm v [SPD]10-days post-treatment=721 μm (25.6% of control) • 6. Dog #468 was bright, alert and responsive until day thirteen of drug administration. […] The dog was fed boiled chicken and rice, as well as Nutrical (a caloric supplement) and cat food and was slowly weaned back to regular dog food. Frank and/or occult blood was found in the dog's stool until about 17-days post-drug. • 7. Dog #500 was bright, alert and responsive throughout the experiment. […] However, stool consistency had normalized by one week post-drug. • 8. […] The inability to digest fats was confirmed when this test was repeated and the fatty meal was supplemented with Viokase (a pancreatic enzyme supplement). […] (2.15 mg/kg every 12 hours) for 13 days • Route: subcutaneously • 1. Dogs #440 and 476 were given (S,S)— (HO)2DEHSPM subcutaneously twice daily for 13 days. • […]. They were fed Purina Dog Chow ad libitum and given free access to water. • 3. At the start of the experiment, dog #440 weighed 11.8 kg.
Two animals were also treated with DEHSPM at a dose equimolar to the (HO)2DEHSPM dosage and sacrificed at 1- and 75-days after the final treatment. […]

[4] = test system: pancreas; assay: Pancreas anatomy and function in DEHSPM-treated animals; type: in vivo; details: equimolar dose
Protocol: Two animals were also treated with DEHSPM at a dose equimolar to the (HO)2DEHSPM dosage and sacrificed at 1- and 75-days after the final treatment. […] At 1-day post-treatment, the total amount of drug: (parent+metabolites)1-day post-treatment=951 μm. […] At 75-days post-treatment, a substantial amount of DEHSPM remains in the pancreas: (parent+metabolites)75-days post-treatment=595 μm.
The nearly normal polyamine pools are mirrored by the anatomy.

[5] = group 2, tumor-bearing, IV QD 3, 4, 6-9, 14, 17, 18, total dosage 240 mg/kg
[6] = group 2, tumor-bearing, total dosage 240 mg/kg IV
[7] = group 4, tumor-bearing, IV QD 3-18, total dosage 205 mg/kg
[8] = group 4, tumor-bearing, total dosage 205 mg/kg IV
[9] = group 6, tumor-bearing, total dosage 102.5 mg/kg IV
[10] = group 3, NTB, IV QD 3, 4, 6-9, 14, 17, 18, total dosage 240 mg/kg
[11] = group 3, NTB, total dosage 240 mg/kg IV
[12] = group 5, NTB, IV QD 3-18, total dosage 205 mg/kg
[13] = group 5, NTB, total dosage 205 mg/kg IV
[14] = group 7, NTB, IV QD 3-18, total dosage 102.5 mg/kg
[15] = group 7, NTB, total dosage 102.5 mg/kg IV
[16] = 1-day post-treatment, equimolar dose
[17] = 75-days post-treatment, equimolar dose

SMILES: CCNCCCCNCCCCNCCCCNCC [DEHSPM, reference compound]
- Mean Body Wt. Loss [1, 5]: −11.2 g/mouse
- Percent Body Wt. Loss [1, 5]: −38.0%
- Day of Wt. Loss Nadir [1, 6]: 35 days
- Drug Deaths (days of death) [1, 6]: 0/5
- Mean Body Wt. Loss [1, 7]: −8.6 g/mouse
- Percent Body Wt. Loss [1, 7]: −29.0%
- Day of Wt. Loss Nadir [1, 8]: 35 days
- Drug Deaths (days of death) [1, 8]: 0/5
- Mean Body Wt. Loss ([1]; group 6, tumor-bearing, IV QD 3-18, total dosage 102.5 mg/kg): −0.4 g/mouse
- Day of Wt. Loss Nadir [1, 9]: 7 days
- Drug Deaths (days of death) [1, 9]: 0/5
- Mean Body Wt. Loss [2, 10]: −8.5 g/mouse
- Percent Body Wt. Loss [2, 10]: −30.0%
- Day of Wt. Loss Nadir [2, 11]: 35 days
- Drug Deaths (days of death) [2, 11]: 0/2
- Mean Body Wt. Loss [2, 12]: −7.5 g/mouse
- Percent Body Wt. Loss [2, 12]: −26.0%
- Day of Wt. Loss Nadir [2, 13]: 35 days
- Drug Deaths (days of death) [2, 13]: 0/2
- Mean Body Wt. Loss [2, 14]: −1.0 g/mouse
- Percent Body Wt. Loss [2, 14]: −3.0%
- Day of Wt. Loss Nadir [2, 15]: 23 days
- Drug Deaths (days of death) [2, 15]: 0/2
- total amount of drug (parent+metabolites) in pancreas ([3]; 1-day post-treatment, dose equimolar to the (HO)2DEHSPM dosage): 951 μm
- [SPD] in pancreas [3, 16]: 863 μm
- [SPD] in pancreas, % of control [3, 16]: 30.6 % of control
- [SPM] in pancreas [3, 16]: 2,770 μm
- [SPM] in pancreas, % of control [3, 16]: 69.5 % of control
- PUT in pancreas [3, 17]: 60 μm
- [SPD] in pancreas [3, 17]: 1,572 μm
- [SPD] in pancreas, % of control [3, 17]: 55.7 % of control
- [SPM] in pancreas [3, 17]: 3,162 μm
- [SPM] in pancreas, % of control [3, 17]: 79.3 % of control
- drug (parent+metabolites) in pancreas [3, 17]: 595 μm
- pancreas anatomy ([4]; 75-days post-treatment): essentially normal macroscopically and microscopically
- exocrine and endocrine pancreatic functions [4]: appeared normal
